Experimental data published in ChEMBL document CHEMBL1148545, “New metabolically stable fatty acid amide ligands of cannabinoid receptors: Synthesis and receptor affinity studies” (Bioorg Med Chem Lett, 2006).

Assays:
Cannabinoid receptor 2 = Cannabinoid receptor 2 (Homo sapiens, UniProt P34972); assay: Displacement of [3H]CP-55940 from human recombinant CB2 receptor
Cannabinoid receptor 1 [1] = target: T1, Cannabinoid receptor 1 (Homo sapiens, UniProt P21554); assay: Displacement of [3H]CP-55940 from human recombinant CB1 receptor
T1 sequence (P21554 whole entry): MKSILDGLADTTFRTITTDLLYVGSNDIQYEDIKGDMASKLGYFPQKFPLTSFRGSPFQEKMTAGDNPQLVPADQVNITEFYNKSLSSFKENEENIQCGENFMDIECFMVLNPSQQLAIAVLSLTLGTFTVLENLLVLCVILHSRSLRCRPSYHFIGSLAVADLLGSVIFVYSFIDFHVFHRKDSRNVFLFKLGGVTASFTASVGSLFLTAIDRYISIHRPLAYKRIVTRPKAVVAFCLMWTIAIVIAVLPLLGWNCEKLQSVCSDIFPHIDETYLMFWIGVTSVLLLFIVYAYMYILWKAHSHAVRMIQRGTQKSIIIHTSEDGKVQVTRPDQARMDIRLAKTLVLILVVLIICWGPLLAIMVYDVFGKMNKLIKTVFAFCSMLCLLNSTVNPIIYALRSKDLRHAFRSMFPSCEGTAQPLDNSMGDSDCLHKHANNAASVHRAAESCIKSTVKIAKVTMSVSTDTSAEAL

Cannabinoid receptor 1 [2] = target: T1, Cannabinoid receptor 1; assay: Displacement of [3H]CP-55940 from human recombinant CB1 receptor in presence of hydrolase inhibitor PMSF
[3] = target: T2, Fatty-acid amide hydrolase 1 (Rattus norvegicus, UniProt P97612); assay: Inhibitory activity against rat brain FAAH by [14C]anandamide hydrolysis
T2 sequence (P97612 whole entry): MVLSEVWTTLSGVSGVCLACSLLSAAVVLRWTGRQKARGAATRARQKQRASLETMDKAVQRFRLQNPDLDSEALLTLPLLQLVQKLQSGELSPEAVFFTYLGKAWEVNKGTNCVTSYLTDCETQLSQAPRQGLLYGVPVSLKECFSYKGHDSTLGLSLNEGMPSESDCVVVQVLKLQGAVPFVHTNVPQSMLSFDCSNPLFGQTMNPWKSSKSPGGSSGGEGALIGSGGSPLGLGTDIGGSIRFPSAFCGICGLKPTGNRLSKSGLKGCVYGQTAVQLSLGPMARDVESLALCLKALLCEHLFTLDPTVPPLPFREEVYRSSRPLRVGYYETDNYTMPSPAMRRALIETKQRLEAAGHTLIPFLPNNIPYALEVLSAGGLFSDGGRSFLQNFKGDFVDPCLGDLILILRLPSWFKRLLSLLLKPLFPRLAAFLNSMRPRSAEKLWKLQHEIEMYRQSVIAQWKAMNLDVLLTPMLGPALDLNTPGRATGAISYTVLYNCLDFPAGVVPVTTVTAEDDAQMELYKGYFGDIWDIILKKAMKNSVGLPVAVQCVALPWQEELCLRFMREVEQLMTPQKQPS

Cannabinoid receptor 2, sequence (P34972 whole entry): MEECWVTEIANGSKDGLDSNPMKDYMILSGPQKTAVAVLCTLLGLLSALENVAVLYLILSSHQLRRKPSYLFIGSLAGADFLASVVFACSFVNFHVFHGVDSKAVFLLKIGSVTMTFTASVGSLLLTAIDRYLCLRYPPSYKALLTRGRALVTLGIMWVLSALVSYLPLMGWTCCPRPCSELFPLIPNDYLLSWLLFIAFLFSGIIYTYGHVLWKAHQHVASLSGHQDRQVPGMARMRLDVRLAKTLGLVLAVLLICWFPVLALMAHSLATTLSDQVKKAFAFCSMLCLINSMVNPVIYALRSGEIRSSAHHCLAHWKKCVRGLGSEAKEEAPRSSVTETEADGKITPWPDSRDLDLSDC

Structure (SMILES): CCCCC/C=C\C/C=C\C/C=C\C/C=C\CCCC(=O)N1CCN(c2ccc(C)c(C)c2)CC1
- Ki (Cannabinoid receptor 2): 4.2 µM
- Ki (Cannabinoid receptor 1 [1]): 0.4 µM

Structure (SMILES): C=CCCCCCCCCC(=O)NCCc1ccc(OC)cc1
- Ki (Cannabinoid receptor 2): > 10 µM
- Ki (Cannabinoid receptor 1 [1]): > 10 µM

Structure (SMILES): CCCCCCCC/C=C/C(=O)NCCc1cc(OC)cc(OC)c1
- Ki (Cannabinoid receptor 2): 5.2 µM
- Ki (Cannabinoid receptor 1 [1]): 2.8 µM

Structure (SMILES): CCCCCCCC/C=C/C(=O)Nc1ccc(OC)cc1
- Ki (Cannabinoid receptor 2): 2.5 µM

Structure (SMILES): CCCCC/C=C\C/C=C\C/C=C\C/C=C\CCCC(=O)NCCc1ccc(OC)cc1OC
- Ki (Cannabinoid receptor 2): 4 µM
- Ki (Cannabinoid receptor 1 [1]): 0.5 µM

Structure (SMILES): CCCCCCCC/C=C\CCCCCCCCCCCC(=O)NCCc1cc(OC)cc(OC)c1
- Ki (Cannabinoid receptor 2): > 10 µM
- Ki (Cannabinoid receptor 1 [1]): 5.4 µM

Structure (SMILES): CCCCCCCC/C=C\CCCCCCCC(=O)NCc1ccc(OC)cc1
- Ki (Cannabinoid receptor 2): > 10 µM
- Ki (Cannabinoid receptor 1 [1]): 0.5 µM
- Ki (Cannabinoid receptor 1 [2]): 0.6 µM
- IC50 [3]: > 25 µM

Structure (SMILES): CCCCCCCC/C=C\CCCCCCCC(=O)NCCc1ccc(OC)cc1OC
- Ki (Cannabinoid receptor 2): > 10 µM
- Ki (Cannabinoid receptor 1 [1]): 0.8 µM
- Ki (Cannabinoid receptor 1 [2]): 0.6 µM
- IC50 [3]: > 25 µM

Structure (SMILES): CCCCC/C=C\C/C=C\C/C=C\C/C=C\CCCC(=O)NCc1cc(OC)ccc1OC
- Ki (Cannabinoid receptor 2): 4.1 µM
- Ki (Cannabinoid receptor 1 [1]): 0.5 µM

Structure (SMILES): CCCCCCCC/C=C/C(=O)NCCc1ccc(OC)cc1
- Ki (Cannabinoid receptor 2): 5.1 µM

Structure (SMILES): CCCCCCCC/C=C/C(=O)NCCc1ccc(OC)cc1OC
- Ki (Cannabinoid receptor 2): > 10 µM
- Ki (Cannabinoid receptor 1 [1]): > 10 µM

Structure (SMILES): CCCCCCCC/C=C\CCCCCCCCCCCC(=O)NCc1ccc(OC)cc1
- Ki (Cannabinoid receptor 2): > 10 µM
- Ki (Cannabinoid receptor 1 [1]): > 10 µM

Structure (SMILES): CCCCCCCC/C=C\CCCCCCCCCCCC(=O)NCCc1ccc(OC)cc1
- Ki (Cannabinoid receptor 2): > 10 µM
- Ki (Cannabinoid receptor 1 [1]): > 10 µM

Structure (SMILES): CCCCC/C=C\C/C=C\C/C=C\C/C=C\CCCC(=O)NCc1ccc(OC)cc1OC
- Ki (Cannabinoid receptor 2): 4 µM
- Ki (Cannabinoid receptor 1 [1]): 0.2 µM
- Ki (Cannabinoid receptor 1 [2]): 0.2 µM
- IC50 [3]: > 25 µM

Structure (SMILES): CCCCC/C=C\C/C=C\C/C=C\C/C=C\CCCC(=O)Nc1ccc(N2CCOCC2)cc1
- Ki (Cannabinoid receptor 2): 4.3 µM
- Ki (Cannabinoid receptor 1 [1]): 0.15 µM
- Ki (Cannabinoid receptor 1 [2]): 0.15 µM
- IC50 [3]: > 25 µM

Structure (SMILES): C=CCCCCCCCCC(=O)NCCc1cc(OC)cc(OC)c1
- Ki (Cannabinoid receptor 2): > 10 µM
- Ki (Cannabinoid receptor 1 [1]): > 10 µM

Structure (SMILES): C=CCCCCCCCCC(=O)NCCc1ccc(OC)cc1OC
- Ki (Cannabinoid receptor 2): > 10 µM
- Ki (Cannabinoid receptor 1 [1]): > 10 µM

Structure (SMILES): CCCCCCCC/C=C/C(=O)Nc1ccc(N2CCOCC2)cc1
- Ki (Cannabinoid receptor 2): > 10 µM
- Ki (Cannabinoid receptor 1 [1]): > 10 µM

Structure (SMILES): CCCCC/C=C\C/C=C\C/C=C\C/C=C\CCCC(=O)N1CCN(c2ccc(Cl)cc2)CC1
- Ki (Cannabinoid receptor 2): > 10 µM
- Ki (Cannabinoid receptor 1 [1]): 0.6 µM

Structure (SMILES): CCCCCCCC/C=C/C(=O)NCc1ccc(OC)cc1
- Ki (Cannabinoid receptor 2): > 10 µM
- Ki (Cannabinoid receptor 1 [1]): > 10 µM

Structure (SMILES): C=CCCCCCCCCC(=O)NCc1ccc(OC)cc1
- Ki (Cannabinoid receptor 2): > 10 µM
- Ki (Cannabinoid receptor 1 [1]): > 10 µM

Structure (SMILES): CCCCC/C=C\C/C=C\C/C=C\C/C=C\CCCC(=O)NCc1ccc(OC)cc1
- Ki (Cannabinoid receptor 2): 4.5 µM
- Ki (Cannabinoid receptor 1 [1]): 0.6 µM

Structure (SMILES): CCCCCCCC/C=C\CCCCCCCC(=O)Nc1ccc(N2CCOCC2)cc1
- Ki (Cannabinoid receptor 2): > 10 µM
- Ki (Cannabinoid receptor 1 [1]): > 10 µM

Structure (SMILES): CCCCCCCC/C=C\CCCCCCCCCCCC(=O)Nc1ccc(OC)cc1
- Ki (Cannabinoid receptor 2): > 10 µM
- Ki (Cannabinoid receptor 1 [1]): > 10 µM

Structure (SMILES): CCCCC/C=C\C/C=C\C/C=C\C/C=C\CCCC(=O)N1CCN(c2ccc(F)cc2)CC1
- Ki (Cannabinoid receptor 2): 5.1 µM
- Ki (Cannabinoid receptor 1 [1]): 0.3 µM
- Ki (Cannabinoid receptor 1 [2]): 0.3 µM
- IC50 [3]: > 25 µM

Structure (SMILES): C=CCCCCCCCCC(=O)Nc1ccc(OC)cc1
- Ki (Cannabinoid receptor 2): > 10 µM
- Ki (Cannabinoid receptor 1 [1]): > 10 µM

Structure (SMILES): CCCCC/C=C\C/C=C\C/C=C\C/C=C\CCCC(=O)NCCc1cc(OC)cc(OC)c1
- Ki (Cannabinoid receptor 2): > 10 µM
- Ki (Cannabinoid receptor 1 [1]): > 10 µM

Structure (SMILES): CCCCC/C=C\C/C=C\C/C=C\C/C=C\CCCC(=O)Nc1ccc(OC)cc1
- Ki (Cannabinoid receptor 2): 4 µM
- Ki (Cannabinoid receptor 1 [1]): 0.5 µM

Structure (SMILES): CCCCC/C=C\C/C=C\C/C=C\C/C=C\CCCC(=O)NCCc1ccc(OC)cc1
- Ki (Cannabinoid receptor 2): > 10 µM
- Ki (Cannabinoid receptor 1 [1]): 2.4 µM

Structure (SMILES): C=CCCCCCCCCC(=O)Nc1ccc(N2CCOCC2)cc1
- Ki (Cannabinoid receptor 2): > 10 µM
- Ki (Cannabinoid receptor 1 [1]): > 10 µM

Structure (SMILES): CCCCCCCC/C=C\CCCCCCCC(=O)NCCc1ccc(OC)cc1
- Ki (Cannabinoid receptor 2): > 10 µM
- Ki (Cannabinoid receptor 1 [1]): 0.4 µM
- Ki (Cannabinoid receptor 1 [2]): 0.3 µM
- IC50 [3]: > 25 µM

Structure (SMILES): CCCCC/C=C\C/C=C\C/C=C\C/C=C\CCCC(=O)Nc1ccc(O)cc1
- Ki (Cannabinoid receptor 1 [1]): 1.76 µM

Structure (SMILES): CCCCCCCC/C=C\CCCCCCCCCCCC(=O)NCCc1ccc(OC)cc1OC
- Ki (Cannabinoid receptor 2): > 10 µM
- Ki (Cannabinoid receptor 1 [1]): 3.7 µM

Structure (SMILES): CCCCCCCC/C=C\CCCCCCCC(=O)NCCc1cc(OC)cc(OC)c1
- Ki (Cannabinoid receptor 2): > 10 µM
- Ki (Cannabinoid receptor 1 [1]): 1.3 µM
- Ki (Cannabinoid receptor 1 [2]): 1 µM
- IC50 [3]: > 25 µM

Structure (SMILES): CCCCCCCC/C=C\CCCCCCCCCCCC(=O)Nc1ccc(N2CCOCC2)cc1
- Ki (Cannabinoid receptor 2): > 10 µM
- Ki (Cannabinoid receptor 1 [1]): 6.4 µM

Structure (SMILES): CCCCCCCC/C=C\CCCCCCCC(=O)Nc1ccc(OC)cc1
- Ki (Cannabinoid receptor 2): > 10 µM
- Ki (Cannabinoid receptor 1 [1]): 1.6 µM
- Ki (Cannabinoid receptor 1 [2]): 1.5 µM
- IC50 [3]: > 25 µM
